# Activity calls are given as the source filed them. The rule behind the calls is not given here.
# Columns and labels:
# MDA-MB-231 [1] = assay: Induction of apoptosis in human MDA-MB-231 cells assessed as viable cells at 2.5 uM measured after 24 hrs by Annexin V-FITC/PI staining based flow cytometry (reference value: 94.3%); format: functional; details: read-out: Activity
# MDA-MB-231 [2] = assay: Induction of apoptosis in human MDA-MB-231 cells assessed as late apoptotic cells at 2.5 uM measured after 24 hrs by Annexin V-FITC/PI staining based flow cytometry (reference value: 3.02%); format: functional
# MDA-MB-231 [3] = assay: Induction of apoptosis in human MDA-MB-231 cells assessed as early apoptotic cells at 2.5 uM measured after 24 hrs by Annexin V-FITC/PI staining based flow cytometry (reference value: 2%); format: functional
# [4] = Toxicity in Balb/c mouse xenografted with human MDA-MB-231 cells assessed as changes in body weight at 25 mg/kg, ig measured after 14 days; format: organism-based; details: in vivo, po, 336 h, time 14 day
# MDA-MB-231 [5] = assay: Inhibition of cell migration in human MDA-MB-231 cells assessed as upregulation of E-cadherin protein expression at 2.5 uM measured after 24 hrs by immunofluorescence assay; format: functional, cell-based
# MDA-MB-231 [6] = assay: Inhibition of cell migration in human MDA-MB-231 cells assessed as decrease in wound closure at 2.5 uM measured after 24 hrs by scratch assay; format: functional, cell-based
# MDA-MB-231 [7] = assay: Induction of apoptosis in human MDA-MB-231 cells assessed as DNA condensation measured after 24 hrs by Hoechst 33258 staining based flourescence microscopic analysis; format: functional, cell-based
# MDA-MB-231 [8] = assay: Induction of apoptosis in human MDA-MB-231 cells assessed as necrotic cells at 2.5 uM measured after 24 hrs by Annexin V-FITC/PI staining based flow cytometrY (reference value: 0.64%); format: functional
# [9] = target: T1, Extracellular serine/threonine protein kinase FAM20C (Homo sapiens) (UniProt Q8IXL6); assay: Inhibition of Fam20C (unknown origin) assessed as reduction in inorganic phosphate release in presence of ATP at 10 uM measured by Malachite green phosphate staining based micro plate reader assay relative to control
# T1 sequence (whole entry): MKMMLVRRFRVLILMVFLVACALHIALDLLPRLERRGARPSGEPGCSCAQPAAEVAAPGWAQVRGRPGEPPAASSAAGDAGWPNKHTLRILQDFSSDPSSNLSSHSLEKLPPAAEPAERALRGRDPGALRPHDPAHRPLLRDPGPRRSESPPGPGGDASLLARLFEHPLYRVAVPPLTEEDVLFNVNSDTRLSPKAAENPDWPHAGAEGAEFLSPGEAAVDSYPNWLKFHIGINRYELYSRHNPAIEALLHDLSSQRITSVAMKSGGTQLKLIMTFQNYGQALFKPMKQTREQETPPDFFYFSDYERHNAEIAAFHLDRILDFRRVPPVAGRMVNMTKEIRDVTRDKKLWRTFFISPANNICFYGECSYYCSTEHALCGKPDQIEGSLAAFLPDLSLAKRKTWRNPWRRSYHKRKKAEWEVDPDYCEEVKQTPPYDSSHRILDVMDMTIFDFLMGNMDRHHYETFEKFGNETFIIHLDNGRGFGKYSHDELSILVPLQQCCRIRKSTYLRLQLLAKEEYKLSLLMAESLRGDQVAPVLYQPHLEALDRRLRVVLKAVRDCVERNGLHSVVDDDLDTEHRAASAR
# [10] = Toxicity in Balb/c mouse xenografted with human MDA-MB-231 cells assessed as changes in body weight at 50 mg/kg, ig measured after 14 days; format: organism-based; details: in vivo, po, 336 h, time 14 day
# MDA-MB-231 [11] = assay: Antitumour activity against human MDA-MB-231 cells xenografted in Balb/c mouse assessed as decrease in Ki-67 expression in tumor at 50 mg/kg, ig measured after 14 days by immunohistochemistry method; format: functional, organism-based; details: time 14.0 day
# MDA-MB-231 [12] = assay: Inhibition of cell migration in human MDA-MB-231 cells assessed as downregulation of MMP-2 protein expression at 2.5 to 5 uM measured after 24 hrs by western blot assay; format: functional, cell-based; details: dose 2.5-5 µM
# MDA-MB-231 [13] = assay: Induction of apoptosis in human MDA-MB-231 cells assessed as upregulation of cleaved caspase 3 level at 2.5 to 5 uM measured after 24 hrs by western blot assay; format: functional, cell-based; details: dose 2.5-5 µM
# MDA-MB-231 [14] = assay: Induction of apoptosis in human MDA-MB-231 cells assessed as viable cells at 5 uM measured after 24 hrs by Annexin V-FITC/PI staining based flow cytometry (reference value: 94.3%); format: functional; details: read-out: Activity
# MDA-MB-231 [15] = assay: Inhibition of cell migration in human MDA-MB-231 cells at 2.5 uM measured after 12 hrs by Transwell assay; format: functional, cell-based
# MDA-MB-231 [16] = assay: Antitumour activity against human MDA-MB-231 cells xenografted in Balb/c mouse assessed as reduction in tumor volume at 25 to 50 mg/kg, ig for 14 days; format: functional, organism-based; details: dose 25-50 mg/kg, time 14.0 day
# MDA-MB-231 [17] = assay: Induction of apoptosis in human MDA-MB-231 cells assessed as early apoptotic cells at 5 uM measured after 24 hrs by Annexin V-FITC/PI staining based flow cytometry (reference value: 2%); format: functional
# MDA-MB-231 [18] = assay: Inhibition of cell migration in human MDA-MB-231 cells assessed as upregulation of E-cadherin protein expression at 2.5 to 5 uM measured after 24 hrs by western blot assay; format: functional, cell-based; details: dose 2.5-5 µM
# [19] = target: T2, Extracellular serine/threonine protein kinase FAM20C (Homo sapiens, UniProt Q8IXL6); assay: Inhibition of Fam20C (unknown origin) assessed as reduction in inorganic phosphate release in presence of ATP measured by Malachite green phosphate staining based micro plate reader assay
# T2 sequence (Q8IXL6 whole entry): T1 sequence (whole entry)
# MDA-MB-231 [20] = assay: Induction of apoptosis in human MDA-MB-231 cells assessed as downregulation of Bcl-2 protein expression at 2.5 to 5 uM measured after 24 hrs by western blot assay; format: functional, cell-based; details: dose 2.5-5 µM
# MDA-MB-231 [21] = assay: Antitumour activity against human MDA-MB-231 cells xenografted in Balb/c mouse assessed as upregulation of Bax protein expression in tumor at 25 to 50 mg/kg, ig measured after 14 days by western blot method; format: functional, organism-based; details: dose 25-50 mg/kg, time 14.0 day
# MDA-MB-231 [22] = assay: Induction of apoptosis in human MDA-MB-231 cells assessed as necrotic cells at 5 uM measured after 24 hrs by Annexin V-FITC/PI staining based flow cytometry (reference value: 0.64%); format: functional
# MCF7 = assay: Antiproliferative activity against human MCF7 cells measured by MTT assay; format: functional, cell-based
# MDA-MB-231 [23] = assay: Antiproliferative activity against human MDA-MB-231 cells measured by MTT assay; format: functional, cell-based
# MDA-MB-231 [24] = assay: Induction of apoptosis in human MDA-MB-231 cells assessed as upregulation of Bax protein expression at 2.5 to 5 uM measured after 24 hrs by western blot assay; format: functional, cell-based; details: dose 2.5-5 µM
# MDA-MB-231 [25] = assay: Inhibition of colony formation in human MDA-MB-231 cells at 5 uM measured after 2 weeks by crystal violet staining based analysis; format: functional, cell-based
# MDA-MB-231 [26] = assay: Antitumour activity against human MDA-MB-231 cells xenografted in Balb/c mouse assessed as downregulation of Bcl-2 protein expression in tumor at 25 to 50 mg/kg, ig measured after 14 days by western blot method; format: functional, organism-based; details: dose 25-50 mg/kg, time 14.0 day
# MDA-MB-231 [27] = assay: Induction of apoptosis in human MDA-MB-231 cells assessed as late apoptotic cells at 5 uM measured after 24 hrs by Annexin V-FITC/PI staining based flow cytometry (reference value: 3.02%); format: functional
# MDA-MB-231 [28] = assay: Inhibition of cell migration in human MDA-MB-231 cells assessed as downregulation of MMP-2 protein expression at 2.5 uM measured after 24 hrs by immunofluorescence assay; format: functional, cell-based
# MDA-MB-231 [29] = assay: Antitumour activity against human MDA-MB-231 cells xenografted in Balb/c mouse assessed as reduction in tumor weight at 25 to 50 mg/kg, ig for 14 days; format: functional, organism-based; details: dose 25-50 mg/kg, time 14.0 day
# MCF-10A = assay: Cytotoxicity against human MCF-10A cells assessed as inhibition of cell proliferation at 0.625 to 40 uM measured by MTT assay; format: cell-based; details: dose 0.625-40 µM
# MDA-MB-231 [30] = assay: Antitumour activity against human MDA-MB-231 cells xenografted in Balb/c mouse assessed as increase in cleaved caspase 3 level in tumor at 25 to 50 mg/kg, ig measured after 14 days by western blot method; format: functional, organism-based; details: dose 25-50 mg/kg, time 14.0 day
# MDA-MB-468 = assay: Antiproliferative activity against human MDA-MB-468 cells measured by MTT assay; format: functional, cell-based
smiles,measurement,setting,value
COc1ccc(S(=O)(=O)Nc2ccc(Nc3nccc(Nc4cc(OC)c(OC)c(OC)c4)n3)cc2)cc1,viability at 2.5 µM,MDA-MB-231 [1],70.8%
same,Activity,MDA-MB-231 [2],15.3%
same,Activity,MDA-MB-231 [3],10.7%
same,Activity,[4],Non-Toxic
same,inhibition,MDA-MB-231 [5],Active
same,inhibition,MDA-MB-231 [6],Active
same,Activity,MDA-MB-231 [7],Active
same,Activity,MDA-MB-231 [8],3.23%
same,inhibition,[9],68%
same,Activity,[10],Non-Toxic
same,Activity,MDA-MB-231 [11],Active
same,inhibition,MDA-MB-231 [12],Active
same,Activity,MDA-MB-231 [13],Active
same,viability at 5 µM,MDA-MB-231 [14],42%
same,inhibition,MDA-MB-231 [15],Active
same,Activity,MDA-MB-231 [16],Active
same,Activity,MDA-MB-231 [17],15.9%
same,inhibition,MDA-MB-231 [18],Active
same,IC50,[19],6.24 µM
same,Activity,MDA-MB-231 [20],Active
same,Activity,MDA-MB-231 [21],Active
same,Activity,MDA-MB-231 [22],8.89%
same,IC50,MCF7,9.7 µM
same,IC50,MDA-MB-231 [23],5.99 µM
same,Activity,MDA-MB-231 [24],Active
same,inhibition,MDA-MB-231 [25],Active
same,Activity,MDA-MB-231 [26],Active
same,Activity,MDA-MB-231 [27],33.2%
same,inhibition,MDA-MB-231 [28],Active
same,Activity,MDA-MB-231 [29],Active
same,Activity,MCF-10A,Non-Toxic
same,Activity,MDA-MB-231 [30],Active
same,IC50,MDA-MB-468,10.3 µM
COc1ccc(Nc2cc(C(F)(F)F)nc(Nc3ccc(NS(=O)(=O)c4ccc(C(F)(F)F)cc4)cc3)n2)cc1,inhibition,[9],19%
same,IC50,MCF7,17.3 µM
same,IC50,MDA-MB-231 [23],23.3 µM
same,IC50,MDA-MB-468,25.3 µM
Cc1cc(Nc2ccc(F)cc2)nc(Nc2ccc(NS(=O)(=O)c3ccc(C(F)(F)F)cc3)cc2)n1,inhibition,[9],24%
same,IC50,MCF7,18 µM
same,IC50,MDA-MB-231 [23],17.5 µM
same,IC50,MDA-MB-468,32.3 µM
COc1ccc(Nc2ccc(Nc3nc(C)cc(Nc4ccc(OC)cc4)n3)cc2)cc1,inhibition,[9],14%
same,IC50,MCF7,> 50 µM
same,IC50,MDA-MB-231 [23],> 50 µM
same,IC50,MDA-MB-468,> 50 µM
COc1cc(C)cc(Cl)c1S(=O)(=O)Nc1ccc(Nc2nc(C)cc(Nc3ccc(F)cc3)n2)cc1,inhibition,[9],12%
same,IC50,MCF7,> 50 µM
same,IC50,MDA-MB-231 [23],> 50 µM
same,IC50,MDA-MB-468,> 50 µM
COc1ccc(Nc2cc(C(F)(F)F)nc(Nc3ccc(NS(=O)(=O)c4ccccc4OC(F)(F)F)cc3)n2)cc1,inhibition,[9],18%
same,IC50,MCF7,14 µM
same,IC50,MDA-MB-231 [23],32.9 µM
same,IC50,MDA-MB-468,> 50 µM
COc1ccc(Nc2ccnc(Nc3ccc(NS(=O)(=O)c4ccc(C)cc4)cc3)n2)cc1,inhibition,[9],28%
same,IC50,MCF7,> 50 µM
same,IC50,MDA-MB-231 [23],21.2 µM
same,IC50,MDA-MB-468,> 50 µM
O=S(=O)(Nc1ccc(Nc2nc(Nc3ccc(F)cc3)cc(C(F)(F)F)n2)cc1)c1ccc(C(F)(F)F)cc1,inhibition,[9],15%
same,IC50,MCF7,17.2 µM
same,IC50,MDA-MB-231 [23],> 50 µM
same,IC50,MDA-MB-468,> 50 µM
COc1ccc(Nc2ccnc(Nc3ccc(NS(=O)(=O)c4ccc(C(F)(F)F)cc4)cc3)n2)cc1,inhibition,[9],18%
same,IC50,MCF7,34.8 µM
same,IC50,MDA-MB-231 [23],27.2 µM
same,IC50,MDA-MB-468,> 50 µM
COc1ccc(Nc2cc(C(F)(F)F)nc(Nc3ccc(NS(=O)(=O)c4c(Cl)cc(C)cc4OC)cc3)n2)cc1,inhibition,[9],11%
same,IC50,MCF7,> 50 µM
same,IC50,MDA-MB-231 [23],> 50 µM
same,IC50,MDA-MB-468,> 50 µM
COc1cc(Nc2ccnc(Nc3ccc(NS(=O)(=O)c4ccc(C)cc4)cc3)n2)cc(OC)c1OC,inhibition,[9],28%
same,IC50,MCF7,> 50 µM
same,IC50,MDA-MB-231 [23],17.3 µM
same,IC50,MDA-MB-468,46.8 µM
COc1ccc(Nc2ccnc(Nc3ccc(NS(=O)(=O)c4ccc(OC)cc4)cc3)n2)cc1,inhibition,[9],25%
same,IC50,MCF7,29 µM
same,IC50,MDA-MB-231 [23],6.87 µM
same,IC50,MDA-MB-468,14.8 µM

# Reference: ChEMBL document CHEMBL4813922, “Discovery of a novel small-molecule inhibitor of Fam20C that induces apoptosis and inhibits migration in triple negative breast cancer” (Eur J Med Chem, 2021)
